Experimental data from EPA's CvTdb concentration-time database.

Columns and labels:
Test in all cases: concentration in plasma after dosing
Rat [1] = settings: dosed: Anthraquinone, 100 mg/kg, oral, Male, F344
Rat [2] = settings: dosed: Anthraquinone, 40 mg/kg, oral, Male, Harlan Sprague Dawley
Rat [3] = settings: 24 h; dosed: Anthraquinone; 40 mg/kg; oral; Male; F344
Rat [4] = settings: dosed: Anthraquinone, 400 mg/kg, oral, Male, F344
Rat [5] = settings: dosed: Anthraquinone, 100 mg/kg, oral, Female, F344
Rat [6] = settings: dosed: Anthraquinone, oral
Rat [7] = settings: dosed: Anthraquinone, 400 mg/kg, oral, Male, F344; remark: listed apart in the source
Rat [8] = settings: 24 h; dosed: Anthraquinone; 100 mg/kg; oral; Male; F344
Rat [9] = settings: dosed: Anthraquinone, 40 mg/kg, oral, Female, F344
Rat [10] = settings: dosed: Anthraquinone, 100 mg/kg, oral, Female, Harlan Sprague Dawley
Rat [11] = settings: dosed: Anthraquinone, 40 mg/kg, oral, Female, Harlan Sprague Dawley
Rat [12] = settings: dosed: Anthraquinone, 100 mg/kg, oral, Male, F344; remark: listed apart in the source
Rat [13] = settings: dosed: Anthraquinone, 100 mg/kg, oral, Female, Harlan Sprague Dawley; remark: listed apart in the source
Rat [14] = settings: dosed: Anthraquinone, 40 mg/kg, oral, Female, F344; remark: listed apart in the source
Rat [15] = settings: dosed: Anthraquinone, 100 mg/kg, oral, Female, Harlan Sprague Dawley; remark: listed apart in the source
Rat [16] = settings: dosed: Anthraquinone, 400 mg/kg, oral, Male, F344; remark: listed apart in the source
Rat [17] = settings: dosed: Anthraquinone, 40 mg/kg, oral, Female, Harlan Sprague Dawley; remark: listed apart in the source
Rat [18] = settings: dosed: Anthraquinone, 100 mg/kg, oral, Male, F344; remark: listed apart in the source
Rat [19] = settings: dosed: Anthraquinone, 100 mg/kg, oral, Female, Harlan Sprague Dawley; remark: listed apart in the source
Rat [20] = settings: 24 h; dosed: Anthraquinone; 100 mg/kg; oral; Male; F344; remark: listed apart in the source
Rat [21] = settings: dosed: Anthraquinone, 400 mg/kg, oral, Male, F344; remark: listed apart in the source
Rat [22] = settings: dosed: Anthraquinone, 100 mg/kg, oral, Male, F344; remark: listed apart in the source
Rat [23] = settings: dosed: Anthraquinone, 100 mg/kg, oral, Male, F344; remark: listed apart in the source
Rat [24] = settings: dosed: Anthraquinone, 40 mg/kg, oral, Female, Harlan Sprague Dawley; remark: listed apart in the source
Rat [25] = settings: dosed: Anthraquinone, 40 mg/kg, oral, Male, Harlan Sprague Dawley; remark: listed apart in the source
Rat [26] = settings: dosed: Anthraquinone, 40 mg/kg, oral, Female, Harlan Sprague Dawley; remark: listed apart in the source
Rat [27] = settings: dosed: Anthraquinone, 40 mg/kg, oral, Male, Harlan Sprague Dawley; remark: listed apart in the source
Rat [28] = settings: dosed: Anthraquinone, 400 mg/kg, oral, Male, F344; remark: listed apart in the source
Rat [29] = settings: dosed: Anthraquinone, 100 mg/kg, oral, Male, F344; remark: listed apart in the source
Rat [30] = settings: dosed: Anthraquinone, 40 mg/kg, oral, Male, Harlan Sprague Dawley; remark: listed apart in the source
Rat [31] = settings: dosed: Anthraquinone, 100 mg/kg, oral, Female, F344; remark: listed apart in the source
Rat [32] = settings: dosed: Anthraquinone, 100 mg/kg, oral, Male, F344; remark: listed apart in the source
Rat [33] = settings: dosed: Anthraquinone, 100 mg/kg, oral, Male, F344; remark: listed apart in the source
Rat [34] = settings: dosed: Anthraquinone, 100 mg/kg, oral, Male, F344; remark: listed apart in the source
Rat [35] = settings: dosed: Anthraquinone, 40 mg/kg, oral, Female, Harlan Sprague Dawley; remark: listed apart in the source
Rat [36] = settings: dosed: Anthraquinone, 40 mg/kg, oral, Female, Harlan Sprague Dawley; remark: listed apart in the source

O=C1c2ccccc2C(=O)c2ccccc21 [Anthraquinone]
Settings | concentration in plasma [µg/mL]
Rat [1], 0.5 h | 0.041
Rat [1], 24 h | 0.433
Rat [2], 2 h | 0.101
Rat [2], 12 h | 0.255
Rat [4], 1 h | 0.129
Rat [4], 18 h | 2.32
Rat [5], 1 h | 0.061
Rat [5], 18 h | 0.538
Rat [7], 1 h | 0.345
Rat [7], 18 h | 2.88
Rat [9], 1 h | 0.061
Rat [9], 18 h | 0.131
Rat [10], 2 h | 0.192
Rat [10], 12 h | 0.818
Rat [11], 4 h | 0.111
Rat [11], 8 h | 0.255
Rat [12], 1 h | 0.072
Rat [12], 18 h | 0.596
Rat [13], 4 h | 0.262
Rat [13], 8 h | 0.595
Rat [14], 1 h | 0.036
Rat [14], 18 h | 0.157
Rat [15], 4 h | 0.255
Rat [15], 8 h | 0.992
Rat [16], 0.5 h | 0.148
Rat [16], 24 h | 2.12
Rat [17], 1 h | 0.065
Rat [17], 18 h | 0.087
Rat [18], 4 h | 0.205
Rat [18], 8 h | 0.522
Rat [19], 2 h | 0.21
Rat [19], 12 h | 0.88
Rat [21], 0.5 h | 0.163
Rat [21], 24 h | 1.97
Rat [22], 2 h | 0.233
Rat [22], 12 h | 0.719
Rat [23], 0.5 h | 0.027
Rat [23], 24 h | 0.349
Rat [24], 2 h | 0.09
Rat [24], 12 h | 0.224
Rat [25], 4 h | 0.117
Rat [25], 8 h | 0.241
Rat [26], 4 h | 0.136
Rat [26], 8 h | 0.28
Rat [27], 4 h | 0.131
Rat [27], 8 h | 0.293
Rat [28], 2 h | 0.352
Rat [28], 12 h | 2.5
Rat [29], 4 h | 0.323
Rat [29], 8 h | 0.758
Rat [30], 2 h | 0.099
Rat [30], 12 h | 0.242
Rat [31], 1 h | 0.063
Rat [31], 18 h | 0.469
Rat [32], 1 h | 0.055
Rat [32], 18 h | 0.429
Rat [33], 0.5 h | 0.028
Rat [33], 24 h | 0.197
Rat [34], 2 h | 0.12
Rat [34], 12 h | 0.671
Rat [35], 1 h | 0.057
Rat [35], 18 h | 0.124
Rat [36], 2 h | 0.128
Rat [36], 12 h | 0.238

Settings | concentration in plasma [µg/mL]
Rat [3] | 0.066
Rat [8] | 0.259
Rat [20] | 0.21

concentration in plasma [µg/mL], Rat [6]
Settings | 0.5 h | 1 h | 2 h | 4 h | 8 h | 12 h | 18 h | 24 h
40 mg/kg, Female, F344 | – | 0.03 | – | – | – | – | 0.191 | –
40 mg/kg, Female, Harlan Sprague Dawley | – | 0.061 | 0.154 | 0.149 | 0.249 | 0.224 | 0.103 | 0.065
40 mg/kg, Male, F344 | – | – | – | – | – | – | – | 0.026
40 mg/kg, Male, Harlan Sprague Dawley | – | – | 0.087 | 0.101 | 0.203 | 0.204 | – | –
100 mg/kg, Female, F344 | – | 0.066 | – | – | – | – | 0.652 | –
100 mg/kg, Female, Harlan Sprague Dawley | – | – | 0.127 | 0.232 | 0.721 | 0.61 | – | –
100 mg/kg, Male, F344 | – | 0.063 | 0.157 | 0.259 | 0.611 | 0.696 | 0.415 | 0.261
400 mg/kg, Male, F344 | 0.106 | 0.235 | 0.285 | – | – | 2.59 | 2.7 | 1.94
